Publication PMC9848300, “Discovery of novel enasidenib analogues targeting inhibition of mutant isocitrate dehydrogenase 2 as antileukaemic agents” (Journal of Enzyme Inhibition and Medicinal Chemistry, 2023)

Assays:
Assay type in all cases: cell-based
MOLT-4 = assay: NCI 60 antitumor screening (single dose / five doses); conditions: Homo sapiens; MOLT-4 (leukaemia), single dose 10 μM; read-out: Growth inhibition percentage (GI %)
T-47D = assay: as above; conditions: Homo sapiens, T47D; T-47D (breast cancer), single dose 10 μM; read-out: Growth inhibition percentage (GI %)
DU-145 = assay: as above; conditions: Homo sapiens; DU-145 (prostate cancer), single dose 10 μM; read-out: Growth inhibition percentage (GI %)
SK-MEL-5 = assay: as above; conditions: Homo sapiens; SK-MEL-5 (melanoma), single dose 10 μM; read-out: Growth inhibition percentage (GI %)
SN 12C = assay: as above; conditions: Homo sapiens, SN12C; SN 12C (renal cancer), single dose 10 μM; read-out: Growth inhibition percentage (GI %)
HL-60(TB) = assay: as above; conditions: Homo sapiens; HL-60(TB) (leukaemia), single dose 10 μM; read-out: Growth inhibition percentage (GI %)
OVCAR-5 = assay: NCI 60 antitumor screening (single dose); conditions: Homo sapiens; OVCAR-5 (ovarian cancer), single dose 10 μM; read-out: Growth inhibition percentage (GI %)
Summary of the method: (§1)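 GI% derived as 100 − G% from triplicate growth measurements in the NCI 60 human tumour panel, compound 10 μM, single dose, per NCI protocol.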

A549/ATCC = assay: NCI 60 antitumor screening (single dose); conditions: Homo sapiens; A549/ATCC (non-small cell lung cancer), single dose 10 μM; read-out: Growth inhibition percentage (GI %)
Summary of the method: (§2)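 Test compound added at 10 μM to each of 60 human cancer lines from nine tumour types; growth measured per NCI protocol in triplicate; percent growth converted to inhibition (100 − G%).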

M14 = assay: NCI 60 antitumor screening (single dose); conditions: Homo sapiens; M14 (melanoma), single dose 10 μM; read-out: Growth inhibition percentage (GI %)
Summary of the method: as §2

KM 12 = assay: NCI 60 antitumor screening (single dose); conditions: Homo sapiens, KM12; KM 12 (colon cancer), single dose 10 μM; read-out: Growth inhibition percentage (GI %)
Summary of the method: as §2

NCI-H322M = assay: NCI 60 antitumor screening (single dose); conditions: Homo sapiens; NCI-H322M (non-small cell lung cancer), single dose 10 μM; read-out: Growth inhibition percentage (GI %)
Summary of the method: as §2

NCI-H522 = assay: NCI 60 antitumor screening (single dose); conditions: Homo sapiens; NCI-H522 (non-small cell lung cancer), single dose 10 μM; read-out: Growth inhibition percentage (GI %)
Summary of the method: as §1

NCI-H23 = assay: NCI 60 antitumor screening (single dose); conditions: Homo sapiens; NCI-H23 (non-small cell lung cancer), single dose 10 μM; read-out: Growth inhibition percentage (GI %)
Summary of the method: as §1

NCI-H460 = assay: NCI 60 antitumor screening (single dose); conditions: Homo sapiens; NCI-H460 (non-small cell lung cancer), single dose 10 μM; read-out: Growth inhibition percentage (GI %)
Summary of the method: as §1

CAKI-1 = assay: NCI 60 antitumor screening (single dose); conditions: Homo sapiens; CAKI-1 (renal cancer), single dose 10 μM; read-out: Growth inhibition percentage (GI %)
Summary of the method: as §2

HS 578T = assay: NCI 60 antitumor screening (single dose); conditions: Homo sapiens; HS 578T (breast cancer), single dose 10 μM; read-out: Growth inhibition percentage (GI %)
Summary of the method: as §2

NCI-H226 = assay: NCI 60 antitumor screening (single dose); conditions: Homo sapiens; NCI-H226 (non-small cell lung cancer), single dose 10 μM; read-out: Growth inhibition percentage (GI %)
Summary of the method: as §2

PC-3 = assay: NCI 60 antitumor screening (single dose); conditions: Homo sapiens; PC-3 (prostate cancer), single dose 10 μM; read-out: Growth inhibition percentage (GI %)
Summary of the method: as §2

SF-268 = assay: NCI 60 antitumor screening (single dose); conditions: Homo sapiens; SF-268 (CNS cancer), single dose 10 μM; read-out: Growth inhibition percentage (GI %)
Summary of the method: as §1

MCF7 = assay: NCI 60 antitumor screening (single dose); conditions: Homo sapiens; MCF7 (breast cancer), single dose 10 μM; read-out: Growth inhibition percentage (GI %)
Summary of the method: as §2

U251 = assay: NCI 60 antitumor screening (single dose); conditions: Homo sapiens, U-251; U251 (CNS cancer), single dose 10 μM; read-out: Growth inhibition percentage (GI %)
Summary of the method: as §1

SK-OV-3 = assay: NCI 60 antitumor screening (single dose); conditions: Homo sapiens; SK-OV-3 (ovarian cancer), single dose 10 μM; read-out: Growth inhibition percentage (GI %)
Summary of the method: as §1

HOP-62 = assay: NCI 60 antitumor screening (single dose); conditions: Homo sapiens; HOP-62 (non-small cell lung cancer), single dose 10 μM; read-out: Growth inhibition percentage (GI %)
Summary of the method: as §1

OVCAR-8 = assay: NCI 60 antitumor screening (single dose); conditions: Homo sapiens; OVCAR-8 (ovarian cancer), single dose 10 μM; read-out: Growth inhibition percentage (GI %)
Summary of the method: as §2

OVCAR-4 = assay: NCI 60 antitumor screening (single dose); conditions: Homo sapiens; OVCAR-4 (ovarian cancer), single dose 10 μM; read-out: Growth inhibition percentage (GI %)
Summary of the method: as §2

OVCAR-3 = assay: NCI 60 antitumor screening (single dose); conditions: Homo sapiens; OVCAR-3 (ovarian cancer), single dose 10 μM; read-out: Growth inhibition percentage (GI %)
Summary of the method: as §2

SK-MEL-28 = assay: NCI 60 antitumor screening (single dose / five doses); conditions: Homo sapiens; SK-MEL-28 (melanoma), single dose 10 μM; read-out: Growth inhibition percentage (GI %)

Structure (SMILES) | inhibition at 10 µM (MOLT-4) | inhibition at 10 µM (T-47D) | inhibition at 10 µM (DU-145) | inhibition at 10 µM (SK-MEL-5) | inhibition at 10 µM (SN 12C) | inhibition at 10 µM (HL-60(TB)) | inhibition at 10 µM (OVCAR-5) | inhibition at 10 µM (A549/ATCC) | inhibition at 10 µM (M14) | inhibition at 10 µM (KM 12) | inhibition at 10 µM (NCI-H322M) | inhibition at 10 µM (NCI-H522) | inhibition at 10 µM (NCI-H23) | inhibition at 10 µM (NCI-H460) | inhibition at 10 µM (CAKI-1) | inhibition at 10 µM (HS 578T) | inhibition at 10 µM (NCI-H226) | inhibition at 10 µM (PC-3) | inhibition at 10 µM (SF-268) | inhibition at 10 µM (MCF7) | also measured
CN(C)c1ccc(/C=N/Nc2nc(N/N=C/c3ccc(N(C)C)cc3)nc(N3CCOCC3)n2)cc1 [compound 6g, 4-[(1e)-(2-{4-[(E)-2-{[4-(dimethylamino)phenyl]methylidene}hydrazin-1-yl]-6-(morpholin-4-yl)-1,3,5-triazin-2-yl}hydrazin-1-ylidene)methyl]-N,N-dimethylaniline] | 3.27% | 5.31% | 7.27% | -0.23% | 10.8% | 3.26% | -10.4% | 25.1% | -2.62% | -3.9% | -0.33% | 1.08% | 0.65% | 83.3% | 4.03% | 2.43% | 6.53% | 12.3% | 2.19% | 45.1% | inhibition at 10 µM (U251): 55.7%; inhibition at 10 µM (SK-OV-3): -9.91%; inhibition at 10 µM (HOP-62): -5.52%; inhibition at 10 µM (OVCAR-8): 1.04%; inhibition at 10 µM (OVCAR-4): -3.79%; inhibition at 10 µM (OVCAR-3): -9.22%; inhibition at 10 µM (SK-MEL-28): -5.75%
Fc1cccc(/C=N/Nc2nc(N/N=C/c3cccc(F)c3)nc(N3CCOCC3)n2)c1 [compound 6e, 2,4-Bis[(E)-2-[(3-Fluorophenyl)methylidene]hydrazin-1-yl]-6-(morpholin-4-yl)-1,3,5-triazine] | 33.9% | 10.3% | 40.5% | 27.9% | 8.98% | 50.9% | -3.81% | 6.5% | 100% | 0.3% | 3.82% | 4.23% | -1.55% | 5.44% | 11.3% | -0.4% | 5.56% | 24.5% | 4.91% | 19.3% | inhibition at 10 µM (U251): 23.8%; inhibition at 10 µM (SK-OV-3): -17.7%; inhibition at 10 µM (HOP-62): -5.63%; inhibition at 10 µM (OVCAR-8): 8.56%; inhibition at 10 µM (OVCAR-4): 0.54%; inhibition at 10 µM (OVCAR-3): 19.3%; inhibition at 10 µM (SK-MEL-28): 10.1%
